Patent US20110207764A1, “CYCLOPOLYSACCHARIDE COMPOSITIONS” (priority 2010, published 2011)

Assay: Concentration of active ingredient dissolved in 60% (w/w) aqueous SBECD after filtration, determined by HPLC
Assay type: physicochemical
Details: 0.2 micrometer filter
Description: (§1) 200 mg of coumarin were added to 4 g of 60% (w/w) aqueous SBECD, and the mixture was mixed at 34° C. for 48 hours, and then filtered through a 0.2 micrometer nylon filter to produce 44.3 mg/g coumarin solution, as determined by HPLC. 40 mg of cetylpiridinium chloride were added to the solution and mixed until completely dissolved, and the composition was filtered.
as §1, with “400” for “200”, “ibuprofen” for “coumarin”, “78.1” for “44.3”, “60” for “40”, “triethanoloamine” for “cetylpiridinium chloride”
as §1, with “2” for “200”, “paclitaxel” for “coumarin”, “0.4” for “44.3”, “heptakis(6-guanidino-6-deoxy)-beta-cyclodextrin” for “cetylpiridinium chloride”
200 mg of diindolylmethane were added to 4 g of 60% (w/w) aqueous SBECD, and the mixture was heated in boiling water bath for 1 hour, then kept at room temperature for 24 hours. The mixture was then filtered through a 0.2 micrometer nylon filter to produce 40.3 mg/g diindolylmethane solution, as determined by HPLC. 24 mg of octakis(6-guanidino-6-deoxy)-gamma-cyclodextrin were added to the solution and mixed until completely dissolved, and the composition was filtered.
10 mg of Semaxanib (3-((3,5-dimethyl-1H-pyrrol-2-yl)methylene)indolin-2-one) were added to 4 g of 60% (w/w) aqueous SBECD, and the mixture was heated in boiling water bath for 1 hour, then kept at room temperature for 24 hours. The mixture was then filtered through a 0.2 micrometer nylon filter to produce 1.3 mg/g semaxanib solution, as determined by HPLC. 80 mg of PI2080 (polyethyleneimine 2000 conjugated with PEG 8000) were added and mixed until completely dissolved, and the composition was filtered.
40 mg of xanthone (9H-xanthen-9-one) were added to 4 g of 60% (w/w) aqueous SBECD, and the mixture was heated in boiling water bath for 1 hour, then kept at room temperature for 24 hours. The mixture was filtered through a 0.2 micrometer nylon filter to produce 8.2 mg/g xanthone solution, as determined by HPLC. 120 mg of low molecular weight protamine were added and mixed until completely dissolved, and the composition was filtered.
100 mg of carvedilol were added to 4 g of 60% (w/w) aqueous SBECD, and the mixture was heated in boiling water bath for 1 hour, then kept at room temperature for 24 hours. The mixture was filtered through a 0.2 micrometer nylon filter to produce 22.6 mg/g carvedilol solution, as determined by HPLC. 120 mg of hexakis(6-amino-6-deoxy)-alpha-cyclodextrin were dissolved in 2 mL water, and the two solutions mixed until completely homogenous. The product solution was freeze-dried to form an amorphous solid.
10 mg of talidomid were added to 4 g of 60% (w/w) aqueous SBECD, and the mixture was mixed at 34° C. for 48 hours. The mixture was filtered through a 0.2 micrometer nylon filter to produce 1.7 mg/g talidomid solution, as determined by HPLC. 120 mg of heptakis(6-amino-6-deoxy)-beta-cyclodextrin were added and mixed until completely dissolved, and the composition was filtered.
2 mg of SN-38 (7-Ethyl-10-hydroxy-camptothecin) were added to 4 g of 60% (w/w) aqueous SBECD, and the mixture was heated in boiling water bath for 1 hour, then kept at room temperature for 24 hours. The mixture was filtered through a 0.2 micrometer nylon filter to produce 0.39 mg/g SN-38 solution, as determined by HPLC. A solution of 60 mg of heptakis(6-amino-6-deoxy)-beta-cyclodextrin in 2 mL water was added to the SN-38 solution, and mixed until the resulting solution was completely homogenous. The composition was filtered. […]

[1] = boiling water bath 1 hour, room temperature 24 hours

concentration of active ingredient in filtered solution [1] [mg/g]	concentration of active ingredient in filtered solution (mixed at 34° C. for 48 hours) [mg/g]	SMILES
1.3		Cc1cc(C)c(C=C2C(=O)Nc3ccccc32)[nH]1 [semaxanib, 3-((3,5-dimethyl-1H-pyrrol-2-yl)methylene)indolin-2-one]
	78.1	CC(C)Cc1ccc(C(C)C(=O)O)cc1 (stereo not drawn) [ibuprofen]
22.6		COc1ccccc1OCCNCC(O)COc1cccc2[nH]c3ccccc3c12 (stereo not drawn) [carvedilol]
	1.7	O=C1CCC(N2C(=O)c3ccccc3C2=O)C(=O)N1 (stereo not drawn) [talidomid]
4.3		CC(=O)[C@@]1(O)CC[C@H]2[C@@H]3C=C(C)C4=CC(=O)CC[C@]4(C)[C@H]3CC[C@@]21C [megesterol]
	44.3	O=c1ccc2ccccc2o1 [coumarin]
	0.4	CC(=O)O[C@H]1C(=O)[C@@]2(C)[C@H]([C@H](OC(=O)c3ccccc3)[C@]3(O)C[C@H](OC(=O)[C@H](O)[C@@H](NC(=O)c4ccccc4)c4ccccc4)C(C)=C1C3(C)C)[C@]1(OC(C)=O)CO[C@@H]1C[C@@H]2O [paclitaxel]

SMILES	concentration of active ingredient in filtered solution [1] [mg/g]	concentration of active ingredient in filtered solution (mixed at 34° C. for 48 hours) [mg/g]
CCc1c2c(nc3ccc(O)cc13)-c1cc3c(c(=O)n1C2)COC(=O)[C@]3(O)CC [SN-38, 7-Ethyl-10-hydroxy-camptothecin]	0.39	
O=c1c2ccccc2oc2ccccc12 [xanthone, 9H-xanthen-9-one]	8.2	
